The source of these data is US11376264B2, “Use of bromodomain-containing protein 9 antagonists in combination with vitamin D receptor agonists in diabetes treatment” (Salk Institute for Biological Studies, priority 2017, dated 2022).

The test system of data set [1] is VDR association with BAF/PBAF complex components. Briefly: VDR interactome (MudPIT, Western blot) in INS1 cells expressing HA-tagged VDR. The class given is cell-based, rat. Particulars: for VDR interactions of key components of the PBAF complex (PBRM1, ARID2): INS1 cells expressing HA-tagged VDR; for VDR association of proteins common to the BAF and PBAF complexes: e.g. SMARCA1, SMARCA2, SMARCA4. As to the method:
Immunoprecipitations were performed as described previously (He et al., 2010, Mol. Cell 38, 428-38). Briefly, cells are lysed using ice-cold lysis buffer (HEPES 20 mM pH8, EDTA 0.2 mM, NaCl 0.3 mM, NP40 0.5%, 15% glycerol) for 15 min, and after centrifuging the supernatant was collected. For HA- or Flag-tagged proteins, immunoprecipitations were performed using HA-magnetic beads (Pierce, P188836), or Flag-magnetic beads (Sigma, M8823) for 1.5 hr at 4° C. For other immunoprecipitations, primary antibodies were incubated with lysates for 2 hr followed by Protein A magnetic beads (Life Technologies, 10001D). After 3 washes with wash buffer (HEPES 10 mM pH8, EDTA 0.2 mM, NaCl 0.3 mM, NP40 0.1%, 15% glycerol), the beads were boiled with NuPage LDS sample buffer and the lysates were stored at -20° C. Samples were precipitated by methanol/chloroform. Dried pellets were dissolved in 8 M urea/100 mM TEAB, pH 8.5. […] Proteins were digested overnight at 37° C. in 2 M urea/100 mM TEAB, pH 8.5, with trypsin (Promega). Digestion was quenched with formic acid, 5% final concentration. The digested samples were analyzed on a Fusion Orbitrap tribrid mass spectrometer (Thermo). The digest was injected directly onto a 30 cm, 75 um ID column packed with BEH 1.7 um C18 resin (Waters). Samples were separated at a flow rate of 200 nl/min on a nLC 1000 (Thermo). […] Column was re-equilibrated with 20 ul of buffer A prior to the injection of sample. Peptides were eluted directly from the tip of the column and nanosprayed directly into the mass spectrometer by application of 2.5 kV voltage at the back of the column. The Orbitrap Fusion was operated in a data-dependent mode. Full MS1 scans were collected in the Orbitrap at […] resolution with a mass range of 400 to 1600 m/z and an AGC target of 5e5. The cycle time was set to 3 sec, and within this 3 sec the most abundant ions per scan were selected for CID MS/MS in the ion trap with an AGC target of 1e4 and minimum intensity of 5000. Maximum fill times were set to 50 ms and 100 ms for MS and MS/MS scans respectively. Quadrupole isolation at 1.6m/z was used, monoisotopic precursor selection was enabled and dynamic exclusion was used with exclusion duration of 5 sec. Protein and peptide identification were done with Integrated Proteomics Pipeline-IP2 (Integrated Proteomics Applications). Tandem mass spectra were extracted from raw files using RawConverter (ref1) and searched with ProLuCID (ref2) against rat UniProt database. The search space included all fully-tryptic and half-tryptic peptide candidates. Carbamidomethylation on cysteine was considered as a static modification. Acetylation (42.010565) was considered as a differential modification on Lysine and the N-terminus. […]
(In general: A western blot detects proteins with antibodies after separation by electrophoresis.)

Data set [2] has as its system human islets. Briefly: Long term ex vivo human islet cultures. The class given is cell-based. Particulars: for insulin secretion: 1 week; for islet survival (cell numbers): 4 weeks. As to the method:
Mouse pancreatic islets were isolated as previously described (Yoshihara et al., 2010, Nat. Commun 1:127) with slight modification. Briefly, 0.5 mg/ml collagenase P (Roche REF 1213873001, diluted in HBSS buffer, GIBCO, 14170-112) was injected through the common bile duct, and the perfused pancreas dissected and incubated at 37° C. for 21 min. Digested exocrine cells and intact islets were separated via centrifugation (900×g for 15 min) over Histopaque-1077 (Sigma, H8889), and intact islets were manually selected. Human islets were provided by the Integrated Islets Distribution Program (see details below).

Data set [3] is described as follows: In vivo pharmacokinetic study of iBRD9 (plasma, LC-MS). Particulars: FIG. 12J, n=3. As to the method: An internal standard of d4-succinate was added to all samples prior to analysis. […] of methanol containing 100 pmol of d4-succinate was added to 50 uL plasma samples and vortexed for 1 min. The samples were then centrifuged at 17.000× g for 10 min at 4° C. After drying the supernatant via SpeedVac, the extract was dissolved in H2O ([…]) and […] was subjected to liquid chromatography mass spectrometry (LC-MS). Compound i-BRD9 was measured using a TSQ Quantiva mass spectrometer (Thermo) and Dionex Ultimate 3000 (Thermo) fitted with a Gemini C18 HPLC column ([…]; 4.6 mm×50 mm, Phenomenex). LC solvents used were: solvent A, 0.1% formic acid in water; solvent B, 0.1% formic acid in acetonitrile. Separations took place over 16 min with a flow rate of 0.4 mL/min and consisted of the following steps: 5 to 50% solvent B over 9 min, 50 to 80% B over 1 min, 80% B for 1 min, 80 to 5% B over 0.1 min, and 5% B for 5 min. MS analyses were performed using electrospray ionization (ESI) in positive ion mode for i-BRD9 and negative ion mode for d4-succinate. Positive and negative mode source parameters were as follows: spray voltage 3.5 kV, ion transfer tube temperature of 325° C., and a vaporizer temperature of 275° C. Multiple reaction monitoring transitions for target compound and internal standard are shown in (Table 2).

Turning to `C=C1/C(=C\C=C2/CCC[C@]3(C)[C@@H]([C@H](C)/C=C/[C@@H](O)C4CC4)CC[C@@H]23)C[C@@H](O)C[C@@H]1O` [Cal, calcipotriol], in data set [1], the “VDR interactions of key components of the PBAF complex (PBRM1, ARID2)” value is on record as “significantly increased”; the “VDR association of proteins common to the BAF and PBAF complexes” value was “increased”. For the same compound, in data set [2], the insulin secretion entry is given as “increased” and the “islet survival (cell numbers)” value is “increased”. Further, in data set [2] (listed as Calcipotriol), the insulin secretion result is “Increases” and the “islet survival (cell numbers)” value is given as “Increases”.

As to `CCn1cc(-c2cccc(C(F)(F)F)c2)c2sc(C(=N)NC3CCS(=O)(=O)CC3)cc2c1=O` [iBRD9], in data set [3], the “maximum plasma iBRD9 concentration” value is about 750 nM. In addition, in data set [1], the “VDR interactions of key components of the PBAF complex (PBRM1, ARID2)” value was “significantly increased”; the “VDR association of proteins common to the BAF and PBAF complexes” value was “increased”.
